Data published in ChEMBL document CHEMBL1150450, “Synthesis and antiangiogenic activity of new carbohydrate derivatives” (Bioorg Med Chem Lett, 1996).
Several values for one entry are separate records, joined by “and”; a condition that tells them apart may be missing. Equal values may be shown once.

Tested on: not listed separately
Assay: Compound was tested for antiproliferative effect against primary endothelial cells from pork aorta (ECPA) with first-phase IC50 of 0.1 nM
Conditions: Sus scrofa, Endothelial cell

SMILES | IC50 [µM]
CO[C@@H]1C(=O)CC[C@]2(CO2)[C@@]1(O)[C@@]1(C)O[C@@H]1CC=C(C)C [OVALICIN] | 10

Organism: Gallus gallus
Assay: Antiangiogenic activity using CAM assay, activity expressed as % of eggs with avascular zone (125 nM).
Type: functional
Conditions: not given

SMILES | Eggs
CO[C@@H]1[C@H](OC(=O)NC(=O)CCl)CO[C@]2(COC(C)(C)O2)[C@]1(CCCCCc1ccccc1)OC(=O)NC(=O)CCl | 88%
C=C(C)[C@@]1(O)[C@H](OC)[C@H](OC)CO[C@]12CO2 | 32%
CO[C@@H]1[C@H](OC(=O)NC(=O)CCl)CO[C@]2(COC(C)(C)O2)[C@@]1(OC(=O)NC(=O)CCl)C(C)C | 95%
CO[C@@H]1[C@H](OC(=O)NC(=O)CCl)CO[C@]2(COC(C)(C)O2)[C@@]1(OC(=O)NC(=O)CCl)C1OC1CCCc1ccccc1 (some centres not stated) | 63%
CO[C@@H]1[C@H](OC(=O)/C=C/C=C/C=C/C=C/C(=O)O)CC[C@]2(CO2)[C@H]1[C@@]1(C)O[C@@H]1CC=C(C)C [FUMAGILLIN] | 80%
CNC(=O)O[C@@H]1CO[C@]2(COC(C)(C)O2)[C@@](O)(C2(C)CO2)[C@@H]1OC (some centres not stated) | 51%
CO[C@@H]1[C@H](OC(=O)NCCCl)CO[C@]2(COC(C)(C)O2)[C@@]1(O)C1(C)CO1 (some centres not stated) | 10%
CO[C@@H]1[C@H](OC(=O)NC(=O)CCl)CO[C@]2(COC(C)(C)O2)[C@@]1(OC)C1(C)CO1 (some centres not stated) | 16%
CO[C@@H]1[C@H](OC(=O)NC(=O)CCl)CO[C@]2(COC(C)(C)O2)[C@@]1(O)C1OC1CC(C)C (some centres not stated) | 75% and 68%
CO[C@@H]1[C@H](OC(=O)NC(=O)CCl)CC[C@]2(CO2)[C@H]1[C@@]1(C)O[C@@H]1CC=C(C)C [O-CHLOROACETYLCARBAMOYLFUMAGILLOL] | 85%
CO[C@@H]1[C@H](OC(=O)NC(=O)c2ccccc2)CO[C@]2(COC(C)(C)O2)[C@@]1(O)C1(C)CO1 (some centres not stated) | 55%
CCOC(=O)NC(=O)O[C@@H]1CO[C@]2(COC(C)(C)O2)[C@@](O)(C2OC2CC(C)C)[C@@H]1OC (some centres not stated) | 11%
CO[C@@H]1[C@H](OC(=O)NC(=O)CCl)CO[C@]2(COC(=O)O2)[C@@]1(O)CCCCCc1ccccc1 | 95%
CO[C@@H]1[C@H](OC(=O)NC(=O)CCl)CO[C@]2(COC(=O)O2)[C@]1(CCCCCc1ccccc1)OC(=O)NC(=O)CCl | 80%
CCOC(=O)CNC(=O)O[C@@H]1CO[C@]2(COC(C)(C)O2)[C@@](O)(C2OC2CC(C)C)[C@@H]1OC (some centres not stated) | 21%
CO[C@@H]1[C@H](OC(=O)NC(=O)CCl)CO[C@]2(COC(C)(C)O2)[C@@]1(O)C1(C)CO1 (some centres not stated) | 84%
CO[C@@H]1[C@H](OC(=O)NC(=O)CCl)CO[C@]2(COC(C)(C)O2)[C@@]1(OC(=O)NC(=O)CCl)C1(C)CO1 (some centres not stated) | 62%
CO[C@@H]1C(=O)CO[C@]2(COC(C)(C)O2)[C@@]1(O)C1(C)CO1 (some centres not stated) | 48%
CO[C@@H]1[C@H](OC(=O)NC(=O)CCl)CO[C@]2(COC(C)(C)O2)[C@@]1(O)C1OC1CCCc1ccccc1 (some centres not stated) | 79% and 76%

Tested on: not listed separately
Assay: Compound was tested for antiproliferative effect against primary endothelial cells from pork aorta(ECPA)
Type: functional, cell-based
Conditions: Sus scrofa, Endothelial cell

SMILES | IC50 [µM]
CO[C@@H]1[C@H](OC(=O)NC(=O)CCl)CO[C@]2(COC(=O)O2)[C@@]1(O)CCCCCc1ccccc1 | 14

Tested on: not listed separately
Assay: Compound was tested for antiproliferative effect against primary endothelial cells from pork aorta(ECPA) with first-phase IC50 of 0.1 nM
Conditions: Sus scrofa, Endothelial cell

SMILES | IC50 [µM]
CO[C@@H]1[C@H](OC(=O)/C=C/C=C/C=C/C=C/C(=O)O)CC[C@]2(CO2)[C@H]1[C@@]1(C)O[C@@H]1CC=C(C)C [FUMAGILLIN] | 100

Tested on: A-431
Assay: In vitro antiproliferative effect against A431 human epidermoid carcinoma cells
Type: functional, cell-based
Conditions: Homo sapiens, A-431

SMILES | IC50 [µM]
CO[C@@H]1[C@H](OC(=O)NC(=O)CCl)CO[C@]2(COC(C)(C)O2)[C@]1(CCCCCc1ccccc1)OC(=O)NC(=O)CCl | 1.2
C=C(C)[C@@]1(O)[C@H](OC)[C@H](OC)CO[C@]12CO2 | > 500
CO[C@@H]1[C@H](OC(=O)NC(=O)CCl)CO[C@]2(COC(C)(C)O2)[C@@]1(OC(=O)NC(=O)CCl)C(C)C | 5.6
CO[C@@H]1[C@H](OC(=O)NC(=O)CCl)CO[C@]2(COC(C)(C)O2)[C@@]1(OC(=O)NC(=O)CCl)C1OC1CCCc1ccccc1 (some centres not stated) | 3.7
CO[C@@H]1[C@H](OC(=O)/C=C/C=C/C=C/C=C/C(=O)O)CC[C@]2(CO2)[C@H]1[C@@]1(C)O[C@@H]1CC=C(C)C [FUMAGILLIN] | 48
CNC(=O)O[C@@H]1CO[C@]2(COC(C)(C)O2)[C@@](O)(C2(C)CO2)[C@@H]1OC (some centres not stated) | > 500
CO[C@@H]1[C@H](OC(=O)NCCCl)CO[C@]2(COC(C)(C)O2)[C@@]1(O)C1(C)CO1 (some centres not stated) | > 500
CO[C@@H]1[C@H](OC(=O)NC(=O)CCl)CO[C@]2(COC(C)(C)O2)[C@@]1(OC)C1(C)CO1 (some centres not stated) | 39
CO[C@@H]1C(=O)CC[C@]2(CO2)[C@@]1(O)[C@@]1(C)O[C@@H]1CC=C(C)C [OVALICIN] | 7.5
CO[C@@H]1[C@H](OC(=O)NC(=O)CCl)CO[C@]2(COC(C)(C)O2)[C@@]1(O)C1OC1CC(C)C (some centres not stated) | 44
CO[C@@H]1[C@H](OC(=O)NC(=O)CCl)CC[C@]2(CO2)[C@H]1[C@@]1(C)O[C@@H]1CC=C(C)C [O-CHLOROACETYLCARBAMOYLFUMAGILLOL] | 5.3
CO[C@@H]1[C@H](OC(=O)NC(=O)c2ccccc2)CO[C@]2(COC(C)(C)O2)[C@@]1(O)C1(C)CO1 (some centres not stated) | > 500
CCOC(=O)NC(=O)O[C@@H]1CO[C@]2(COC(C)(C)O2)[C@@](O)(C2OC2CC(C)C)[C@@H]1OC (some centres not stated) | 471
CO[C@@H]1[C@H](OC(=O)NC(=O)CCl)CO[C@]2(COC(=O)O2)[C@@]1(O)CCCCCc1ccccc1 | 11
CO[C@@H]1[C@H](OC(=O)NC(=O)CCl)CO[C@]2(COC(=O)O2)[C@]1(CCCCCc1ccccc1)OC(=O)NC(=O)CCl | 2
CCOC(=O)CNC(=O)O[C@@H]1CO[C@]2(COC(C)(C)O2)[C@@](O)(C2OC2CC(C)C)[C@@H]1OC (some centres not stated) | 442
CO[C@@H]1[C@H](OC(=O)NC(=O)CCl)CO[C@]2(COC(C)(C)O2)[C@@]1(O)C1(C)CO1 (some centres not stated) | 84
CO[C@@H]1[C@H](OC(=O)NC(=O)CCl)CO[C@]2(COC(C)(C)O2)[C@@]1(OC(=O)NC(=O)CCl)C1(C)CO1 (some centres not stated) | 38
CO[C@@H]1C(=O)CO[C@]2(COC(C)(C)O2)[C@@]1(O)C1(C)CO1 (some centres not stated) | > 500
CO[C@@H]1[C@H](OC(=O)NC(=O)CCl)CO[C@]2(COC(C)(C)O2)[C@@]1(O)C1OC1CCCc1ccccc1 (some centres not stated) | 19

Same assay, conditions: a-431

SMILES | IC50 [µM]
CO[C@@H]1[C@H](OC(=O)NC(=O)CCl)CO[C@]2(COC(C)(C)O2)[C@@]1(O)C1OC1CCCc1ccccc1 (some centres not stated) | 29

Tested on: not listed separately
Assay: Antiproliferative effect against primary endothelial cells from pork aorta(ECPA)
Type: functional, cell-based, Sus scrofa, Endothelial cell
Conditions: Sus scrofa, Endothelial cell

SMILES | IC50 [µM]
CO[C@@H]1[C@H](OC(=O)NC(=O)CCl)CO[C@]2(COC(C)(C)O2)[C@]1(CCCCCc1ccccc1)OC(=O)NC(=O)CCl | 0.8
C=C(C)[C@@]1(O)[C@H](OC)[C@H](OC)CO[C@]12CO2 | > 500
CO[C@@H]1[C@H](OC(=O)NC(=O)CCl)CO[C@]2(COC(C)(C)O2)[C@@]1(OC(=O)NC(=O)CCl)C(C)C | 23
CO[C@@H]1[C@H](OC(=O)NC(=O)CCl)CO[C@]2(COC(C)(C)O2)[C@@]1(OC(=O)NC(=O)CCl)C1OC1CCCc1ccccc1 (some centres not stated) | 16
CNC(=O)O[C@@H]1CO[C@]2(COC(C)(C)O2)[C@@](O)(C2(C)CO2)[C@@H]1OC (some centres not stated) | 195
CO[C@@H]1[C@H](OC(=O)NCCCl)CO[C@]2(COC(C)(C)O2)[C@@]1(O)C1(C)CO1 (some centres not stated) | 278
CO[C@@H]1[C@H](OC(=O)NC(=O)CCl)CO[C@]2(COC(C)(C)O2)[C@@]1(OC)C1(C)CO1 (some centres not stated) | 175
CO[C@@H]1[C@H](OC(=O)NC(=O)CCl)CO[C@]2(COC(C)(C)O2)[C@@]1(O)C1OC1CC(C)C (some centres not stated) | 124
CO[C@@H]1[C@H](OC(=O)NC(=O)c2ccccc2)CO[C@]2(COC(C)(C)O2)[C@@]1(O)C1(C)CO1 (some centres not stated) | 363
CCOC(=O)NC(=O)O[C@@H]1CO[C@]2(COC(C)(C)O2)[C@@](O)(C2OC2CC(C)C)[C@@H]1OC (some centres not stated) | 398
CO[C@@H]1[C@H](OC(=O)NC(=O)CCl)CO[C@]2(COC(=O)O2)[C@]1(CCCCCc1ccccc1)OC(=O)NC(=O)CCl | 2.4
CCOC(=O)CNC(=O)O[C@@H]1CO[C@]2(COC(C)(C)O2)[C@@](O)(C2OC2CC(C)C)[C@@H]1OC (some centres not stated) | 343
CO[C@@H]1[C@H](OC(=O)NC(=O)CCl)CO[C@]2(COC(C)(C)O2)[C@@]1(O)C1(C)CO1 (some centres not stated) | 57
CO[C@@H]1[C@H](OC(=O)NC(=O)CCl)CO[C@]2(COC(C)(C)O2)[C@@]1(OC(=O)NC(=O)CCl)C1(C)CO1 (some centres not stated) | 122
CO[C@@H]1C(=O)CO[C@]2(COC(C)(C)O2)[C@@]1(O)C1(C)CO1 (some centres not stated) | 119
CO[C@@H]1[C@H](OC(=O)NC(=O)CCl)CO[C@]2(COC(C)(C)O2)[C@@]1(O)C1OC1CCCc1ccccc1 (some centres not stated) | 68

Same assay, conditions: endothelial cell

SMILES | IC50 [µM]
CO[C@@H]1[C@H](OC(=O)NC(=O)CCl)CO[C@]2(COC(C)(C)O2)[C@@]1(O)C1OC1CC(C)C (some centres not stated) | 178
CO[C@@H]1[C@H](OC(=O)NC(=O)CCl)CO[C@]2(COC(C)(C)O2)[C@@]1(O)C1OC1CCCc1ccccc1 (some centres not stated) | 90

Tested on: not listed separately
Assay: Compound was tested for antiproliferative effect against primary endothelial cells from pork aorta(ECPA) with first-phase IC50 of 0.001 nM
Conditions: Sus scrofa, Endothelial cell

SMILES | IC50 [µM]
CO[C@@H]1[C@H](OC(=O)NC(=O)CCl)CC[C@]2(CO2)[C@H]1[C@@]1(C)O[C@@H]1CC=C(C)C [O-CHLOROACETYLCARBAMOYLFUMAGILLOL] | 12
